In US20260022142A1, “MACROCYCLIC IMMUNOMODULATORS” (Bristol-Myers Squibb Company, priority 2022, published 2026):
Bridge positions count the residues as written; N and C are the ends. Square brackets hold non-standard residues; d marks the D form. Peptide text beside a SMILES is read from it. * marks the point of attachment. ξ: configuration not given here. Bip = N[C@@H](Cc1ccc(-c2ccccc2)cc1)C(=O)O; Cha = N[C@@H](CC1CCCCC1)C(=O)O; Carboxymethyl = O=C(O)C*; Orn = NCCC[C@H](N)C(=O)O; dDap = NC[C@@H](N)C(=O)O; Aun = NCCCCCCCCCCC(=O)O; Dap = NC[C@H](N)C(=O)O; AEEA = NCCOCCOCC(=O)O; ξC = NC(CS)C(=O)O

Target: T1, PD-1/PD-L1 interaction (PE-labeled human PD-L1-Ig binding to Jurkat cell line over-expressing human PD-1) (Homo sapiens, UniProt Q15116)
T1 construct: expressed in transfected cells; host or cells: Jurkat
Assay: Jurkat-PD-1 Cell Binding High-Content Screening Assay (CBA)
Format: cell-based
Details: Jurkat cell line over-expressing human PD-1; PE-labeled PD-L1-Ig 20 nM final; read-out: Jurkat hPD1-PDL1 IC50
Procedure, shortened: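 Jurkat cells stably over-expressing human PD-1 were seeded in DMEM with 10% fetal calf serum and pre-incubated with compound for 2 h at 37° C. PE-labeled human PD-L1-Ig was then added at 20 nM final for 1 hour, after which cells were fixed with paraformaldehyde, Hoechst-stained and imaged by high-content microscopy.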

T1 sequence (Q15116 25-288): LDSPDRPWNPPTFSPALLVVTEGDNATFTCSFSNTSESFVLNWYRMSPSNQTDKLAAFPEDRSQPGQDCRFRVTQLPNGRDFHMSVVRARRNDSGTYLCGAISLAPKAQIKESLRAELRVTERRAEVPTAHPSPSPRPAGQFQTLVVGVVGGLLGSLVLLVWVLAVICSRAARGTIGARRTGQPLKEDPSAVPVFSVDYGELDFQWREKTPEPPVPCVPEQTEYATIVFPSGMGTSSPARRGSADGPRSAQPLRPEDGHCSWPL

SMILES	IC50
CC(C)C[C@H]1NC(=O)[C@H](CCCN)NC(=O)[C@H](C(C)C)NC(=O)[C@H](Cc2ccc(-c3ccccc3)cc2)NC(=O)[C@H](C(C)C)NC(=O)[C@H](Cc2c[nH]c3ccccc23)NC(=O)[C@H](CC(=O)O)NC(=O)[C@H](Cc2ccc(OCC(=O)O)cc2)NC(=O)[C@H](CN)NC(=O)CSC[C@@H](C(=O)N[C@H](Cc2cnc[nH]2)C(=O)NCCCCCCCCCCC(=O)O)NC(=O)[C@H]([C@@H](C)O)NC(=O)[C@H](C(C)C)NC(=O)[C@H](CC2CCCCC2)NC(=O)[C@H](Cc2cnc[nH]2)NC1=O [Compound 1124] ({CH2CO}-[Dap]Y(Carboxymethyl)DWV[Bip]V[Orn][dL]H[Cha]VTC[dH][Aun]-OH; thioether N-14)	38.2 nM
CC(C)C[C@H]1NC(=O)[C@H](CCCN)NC(=O)[C@H](C(C)C)NC(=O)[C@H](Cc2ccc(-c3ccccc3)cc2)NC(=O)[C@H](C(C)C)NC(=O)[C@H](Cc2c[nH]c3ccccc23)NC(=O)[C@H](CC(=O)O)NC(=O)[C@H](Cc2ccc(OCC(=O)O)cc2)NC(=O)[C@H](CN)NC(=O)CSCC(C(=O)N[C@@H](Cc2cnc[nH]2)C(=O)NCCCCCCCCCCC(=O)O)NC(=O)[C@H]([C@@H](C)O)NC(=O)[C@H](C(C)C)NC(=O)[C@H](CC2CCCCC2)NC(=O)[C@H](Cc2cnc[nH]2)NC1=O (stereo partly drawn) [Compound 1126] ({CH2CO}-[Dap]Y(Carboxymethyl)DWV[Bip]V[Orn][dL]H[Cha]VT[ξC]H[Aun]-OH; thioether N-14)	74 nM

The remaining lines, values ahead:

IC50	SMILES
35.6 nM	CC(C)C[C@H]1NC(=O)[C@H](CCCN)NC(=O)[C@H](C(C)C)NC(=O)[C@H](Cc2ccc(-c3ccccc3)cc2)NC(=O)[C@H](C(C)C)NC(=O)[C@H](Cc2c[nH]c3ccccc23)NC(=O)[C@H](CC(=O)O)NC(=O)[C@H](Cc2ccc(OCC(=O)O)cc2)NC(=O)[C@H](CN)NC(=O)CSCC(C(=O)N[C@H](CC(N)=O)C(=O)NCCCCCCCCCCC(=O)O)NC(=O)[C@H]([C@@H](C)O)NC(=O)[C@H](C(C)C)NC(=O)[C@H](CC2CCCCC2)NC(=O)[C@H](Cc2cnc[nH]2)NC1=O (stereo partly drawn) [Compound 1125] ({CH2CO}-[Dap]Y(Carboxymethyl)DWV[Bip]V[Orn][dL]H[Cha]VT[ξC][dN][Aun]-OH; thioether N-14)
25.6 nM	CC(C)C[C@H]1NC(=O)[C@H](CCCN)NC(=O)[C@H](C(C)C)NC(=O)[C@H](Cc2ccc(-c3ccccc3)cc2)NC(=O)[C@H](C(C)C)NC(=O)[C@H](Cc2c[nH]c3ccccc23)NC(=O)[C@H](CC(=O)O)NC(=O)[C@H](Cc2ccc(OCC(=O)O)cc2)NC(=O)[C@H](CN)NC(=O)CSC[C@@H](C(=O)NCCOCCOCC(=O)N[C@H](C)C(=O)NCCCCCCCCCCC(=O)O)NC(=O)[C@H]([C@@H](C)O)NC(=O)[C@H](C(C)C)NC(=O)[C@H](CC2CCCCC2)NC(=O)[C@H](Cc2cnc[nH]2)NC1=O [Compound 1127] ({CH2CO}-[Dap]Y(Carboxymethyl)DWV[Bip]V[Orn][dL]H[Cha]VTC[AEEA][dA][Aun]-OH; thioether N-14)
28.7 nM	CC(C)C[C@H]1NC(=O)[C@H](CCCN)NC(=O)[C@H](C(C)C)NC(=O)[C@H](Cc2ccc(-c3ccccc3)cc2)NC(=O)[C@H](C(C)C)NC(=O)[C@H](Cc2c[nH]c3ccccc23)NC(=O)[C@H](CC(=O)O)NC(=O)[C@H](Cc2ccc(OCC(=O)O)cc2)NC(=O)[C@H](CN)NC(=O)CSC[C@@H](C(=O)NCCOCCOCC(=O)N[C@H](CN)C(=O)NCCCCCCCCCCC(=O)O)NC(=O)[C@H]([C@@H](C)O)NC(=O)[C@H](C(C)C)NC(=O)[C@H](CC2CCCCC2)NC(=O)[C@H](Cc2cnc[nH]2)NC1=O [Compound 1128] ({CH2CO}-[Dap]Y(Carboxymethyl)DWV[Bip]V[Orn][dL]H[Cha]VTC[AEEA][dDap][Aun]-OH; thioether N-14)
